Data published in patent EP4755881A1 (Wuhan Createrna Science and Technology Co., Ltd., priority 2023, dated 2025).

Molecular target: T1, LPAR1 receptor (Homo sapiens, UniProt Q92633)
T1 construct: expressed in transfected cells
Assay: LPAR1 in vitro biological activity evaluation 2: HTRF cAMP kit (LANCE Ultra cAMP Kit) assay in CHO stable transfected cell line expressing the LPAR1 receptor
Format: cell-based
Settings: Table 2, read-out: LPAR1 inhibitory activity IC50
Experimental: The inhibitory effects of the compounds of the present disclosure on the LPAR1 receptor were determined using a Chinese hamster ovary (CHO) stable transfected cell line expressing the LPAR1 receptor, through the HTRF cAMP kit (LANCE® Ultra cAMP Kit).
The CHO cell line expressing the LPAR1 receptor was cultured in F-12 medium (Gibco, 117650054) containing 10% fetal bovine serum (FBS, Avantor, 76294-180) and 0.2 mg/mL hygromycin B (Solarbio, H8080-1g) at 37°C with 5% CO2. Cell passage, recovery, and cryopreservation were performed according to conventional methods. The stable transfected cell line was cultured to 80% confluence, digested with trypsin to collect cells, counted, and then seeded at 5 µL/well in a 384-well plate (500 cells/5 µL). The 1× Stimulation Buffer was prepared according to the instructions of the kit (LANCE® Ultra cAMP Kit). 1 µL of the test compound solution (diluted to 10× with 1× Stimulation Buffer) was added to the corresponding experimental wells, followed by centrifugation and incubation at 37°C for 10 minutes. […] 5 µL/well of Eu-cAMP (diluted with Detection buffer) was added to the corresponding experimental wells. 5 µL/well of ULight™-anti-cAMP antibody (diluted with Detection buffer) was added to the corresponding experimental wells, followed by centrifugation and incubation at room temperature for 1 hour. After the incubation was completed, the readings at 665 nm and 620 nm under 330 nm excitation were detected using the HTS high-throughput drug screening multifunctional microplate reader (BMG, PHERAstar FSX). The IC50 values were calculated by fitting nonlinear regression (dose response - variable slope) using GraphPad Prism software.

T1 sequence (Q92633 whole entry): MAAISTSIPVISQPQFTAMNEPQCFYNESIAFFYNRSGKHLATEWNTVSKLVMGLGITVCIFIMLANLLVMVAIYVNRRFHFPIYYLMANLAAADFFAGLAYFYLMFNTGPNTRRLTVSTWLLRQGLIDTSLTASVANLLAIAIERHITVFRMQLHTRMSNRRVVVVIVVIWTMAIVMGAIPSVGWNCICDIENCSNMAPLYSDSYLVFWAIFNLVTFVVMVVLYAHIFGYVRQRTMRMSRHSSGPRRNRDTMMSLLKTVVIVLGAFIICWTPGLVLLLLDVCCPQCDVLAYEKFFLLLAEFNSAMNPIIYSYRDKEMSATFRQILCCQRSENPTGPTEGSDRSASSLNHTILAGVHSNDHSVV

IC50 | Compound
76.5 nM | CCc1nc(-c2nnn(C)c2NC(=O)O[C@H](C)CC(C)(F)F)ccc1C#CC1(CC(=O)O)CC(OC)C1 (stereo partly drawn) [compound 476]
23.9 nM | CCCCN(C)C(=O)OCc1c(-c2ccc(C#CC3(CC(=O)O)CC(F)(F)C3)c(C)n2)nnn1C [compound 109]
167 nM | CCC(F)(F)[C@@H](C)OC(=O)Nc1c(-c2ccc(C#Cc3ccncc3C(=O)O)c(C)n2)nnn1C [compound 474, (R)-4-((6-(5-((((3,3-difluoropentan-2-yl)oxy)carbonyl)amino)-1-methyl-1H-1,2,3-triazol-4-yl)-2-methylpyridin-3-yl)ethynyl)nicotinic acid]
35.2 nM | CCC(F)(F)[C@@H](C)OC(=O)Nc1c(C)noc1-c1ccc(C#C[C@@H]2CC(F)(F)C[C@H]2C(=O)O)c(C)n1 [compound 487]
4 nM | CCC[C@@H](C)OC(=O)Nc1c(-c2ccc(C#CC3(CS(=O)(=O)O)CC4(CC4)C3)c(C)n2)nnn1C [compound 508, (R)-(5-((2-methyl-6-(1-methyl-5-(((pentan-2-yloxy)carbonyl)amino)-1H-1,2,3-triazol-4-yl)pyridin-3-yl)ethynyl)spiro[2.3]hexan-5-yl)methanesulfonic acid]
51.5 nM | CCC(F)(F)[C@@H](C)OC(=O)Nc1c(C)noc1-c1ccc(C#CC2(CC(=O)O)CC(OC)C2)c(C)n1 (stereo partly drawn) [compound 488]
6.4 nM | CCc1nc(-c2nnn(C)c2NC(=O)O[C@H](C)C(F)(F)CC)ccc1C#CC1(CC(=O)O)CC2(CC2)C1 [compound 504]
11.5 nM | CCC(F)(F)[C@@H](C)OC(=O)Nc1c(-c2ccc(C#CC3(CC(=O)O)CC4(CC4)C3)c(C(F)(F)F)n2)nnn1C [compound 499]
32.1 nM | CCC[C@@H](C)OC(=O)Nc1c(-c2ccc(C#CC3(P(=O)(O)O)CC4(CC4)C3)c(C)n2)nnn1C [compound 510]
190 nM | Cc1nc(-c2nnn(C)c2NC(=O)O[C@H](C)CC(C)C)ccc1C#C[C@@H]1C[C@H]1C(=O)O [compound 290]
16.5 nM | CCOC1CC(C#Cc2ccc(-c3nnn(C)c3NC(=O)O[C@H](C)C(F)(F)CC)nc2Cl)(CC(=O)O)C1 (stereo partly drawn) [compound 467]
19.6 nM | CCCCN(C)C(=O)OCc1c(-c2ccc(C#CC3(CC(=O)O)CC(OC)C3)c(C)n2)nnn1C (stereo not drawn) [compound 113]
56 nM | CCC[C@@H](C)OC(=O)Nc1c(-c2ccc(C#CC3(CC(=O)O)CC(OC)C3)c(C)n2)nnn1C (single isomer, unassigned) [278-B]
8.6 nM | CCOC1CC(C#Cc2ccc(-c3nnn(C)c3NC(=O)O[C@H](C)C(F)(F)CC)nc2C(F)(F)F)(CC(=O)O)C1 (stereo partly drawn) [compound 490]
59 nM | CCC[C@@H](C)OC(=O)Nc1c(-c2ccc(C#CC3(CC(=O)O)CC(OCC)C3)c(C)n2)nnn1C (stereo partly drawn) [compound 427]
8.3 nM | CCCN(C)C(=O)OCc1c(-c2ccc(C#CC3(CC(=O)O)CC4(CC4)C3)c(C)n2)nnn1C [compound 115]
23.4 nM | CCC(F)(F)[C@@H](C)OC(=O)Nc1c(-c2ccc(C#CC3(CC(=O)O)CC(OC)C3)c(Cl)n2)nnn1C (stereo partly drawn) [compound 461]
14.1 nM | CCOC1CC(C#Cc2ccc(-c3nnn(C)c3NC(=O)O[C@H](C)C(F)(F)CC)nc2CC)(CC(=O)O)C1 (stereo partly drawn) [compound 489]

Compound | IC50
CCC(F)(F)[C@@H](C)OC(=O)Nc1c(C)noc1-c1ccc(C#CC2(CC(=O)O)CC2)c(C)n1 [compound 277] | 26.6 nM
COC1CC(C#Cc2ccc(-c3nnn(C)c3NC(=O)O[C@H](C)c3ccccc3Cl)nc2C)(CC(=O)O)C1 (stereo partly drawn) [compound 465] | 30.9 nM
CCC[C@@H](C)OC(=O)Nc1c(-c2ccc(C#C[C@@H]3CCC[C@H]3C(=O)O)c(C)n2)nnn1C [compound 305] | 91.2 nM
CCCC(C)OC(=O)Nc1c(-c2ccc(C#CC3CCCC3C(=O)O)c(C)n2)nnn1C (single isomer, unassigned) [305-A] | 25.6 nM
CCC(F)(F)[C@@H](C)OC(=O)Nc1c(-c2ccc(C#CC3(CC(=O)O)CC4(CC4)C3)c(Cl)n2)nnn1C [compound 503] | 8.5 nM
Cc1nc(-c2noc(C)c2NC(=O)O[C@H](C)CC(C)(F)F)ccc1C#CC1(CC(=O)O)CC1 [compound 334] | 107 nM
